The subject of one experiment is A549. The experiment can be described thus: Induction of cell cycle arrest in human A549 cells assessed as accumulation of cells at G0/G1 phase at 0.01 uM incubated for 24 hrs by PI staining based flow cytometry analysis (reference value: 66.75%). Format: functional. On the technique in general: Flow cytometry measures light scatter and fluorescence of single cells or particles in a stream.

Experiment [1] has as its target T1, Protein cereblon-alpha tubulin (Homo sapiens) (UniProt P0DPH7+P68366+Q71U36+P68363+Q9BQE3+Q6PEY2+A6NHL2+Q9NY65+Q96SW2). Nature of the experiment: Protac activity at CRBN/alpha-tubulin in human A549/Taxol cells assessed as reduction in alpha-tubulin level at 0.25 uM pretreated with MG-132 followed by compound addition and measured after 48 hrs by immunoblotting analysis. It counts as cell-based.

A further experiment relates to A549/TR. The experiment can be described thus: Induction of cell cycle arrest in human A549/Taxol cells assessed as accumulation of cells at G0/G1 phase at 0.05 uM incubated for 24 hrs by PI staining based flow cytometry analysis (reference value: 77.86%). Format: functional.
Experiment [2] concerns the target T1, Protein cereblon-alpha tubulin (Homo sapiens). Nature of the experiment: Protac activity at CRBN/alpha-tubulin in human A549 cells assessed as reduction in alpha-tubulin level at 0.25 uM pretreated for 48 hrs followed by compound washout and measured upto 24 hrs by immunoblotting analysis. Format: cell-based. Background: In western blotting, separated proteins are transferred to a membrane and probed.

Activity calls are given as the source filed them. The rule behind the calls is not given here.

With `COc1ccc(/C=C\c2cc(OC)c(OC)c(OC)c2)cc1OC(=O)CCCNc1cccc2c1C(=O)N(C1CCC(=O)NC1=O)C2=O` (centres undefined), the Activity in the experiment with A549 came to 16.29%; in the experiment with A549/TR, 30%. Besides, the outcome in experiment [1] was inactive. The result in experiment [2] was Active.

The values are drawn from ChEMBL document CHEMBL5518186, “Discovery of the cereblon-recruiting tubulin PROTACs effective in overcoming Taxol resistance in vitro and in vivo” (Eur J Med Chem, 2024).
